# Measurements published in patent publication US9986740B2, “Methods of identifying insect-TRPA1 modulators” (BRANDEIS UNIVERSITY, priority 2010, dated 2018).
# What was measured:
# Drosophila flies = assay: Proboscis extension response (PER) behavioral assay; assay type: in vivo, Drosophila melanogaster
# uninjected oocytes = assay: Two-electrode voltage clamping on uninjected oocytes; assay type: cell-based, Xenopus laevis; conditions: 3 mM AITC, 1 mM CA, 0.1 mM NMM
# dTRPA1 = target: T1, dTRPA1 (Drosophila melanogaster, UniProt Q7Z020); assay: Larval neuromuscular junction electrophysiology, dTRPA1 expressed in motor neurons; assay type: cell-based; conditions: third instar larval muscles
# T1 sequence (Q7Z020 1-1197): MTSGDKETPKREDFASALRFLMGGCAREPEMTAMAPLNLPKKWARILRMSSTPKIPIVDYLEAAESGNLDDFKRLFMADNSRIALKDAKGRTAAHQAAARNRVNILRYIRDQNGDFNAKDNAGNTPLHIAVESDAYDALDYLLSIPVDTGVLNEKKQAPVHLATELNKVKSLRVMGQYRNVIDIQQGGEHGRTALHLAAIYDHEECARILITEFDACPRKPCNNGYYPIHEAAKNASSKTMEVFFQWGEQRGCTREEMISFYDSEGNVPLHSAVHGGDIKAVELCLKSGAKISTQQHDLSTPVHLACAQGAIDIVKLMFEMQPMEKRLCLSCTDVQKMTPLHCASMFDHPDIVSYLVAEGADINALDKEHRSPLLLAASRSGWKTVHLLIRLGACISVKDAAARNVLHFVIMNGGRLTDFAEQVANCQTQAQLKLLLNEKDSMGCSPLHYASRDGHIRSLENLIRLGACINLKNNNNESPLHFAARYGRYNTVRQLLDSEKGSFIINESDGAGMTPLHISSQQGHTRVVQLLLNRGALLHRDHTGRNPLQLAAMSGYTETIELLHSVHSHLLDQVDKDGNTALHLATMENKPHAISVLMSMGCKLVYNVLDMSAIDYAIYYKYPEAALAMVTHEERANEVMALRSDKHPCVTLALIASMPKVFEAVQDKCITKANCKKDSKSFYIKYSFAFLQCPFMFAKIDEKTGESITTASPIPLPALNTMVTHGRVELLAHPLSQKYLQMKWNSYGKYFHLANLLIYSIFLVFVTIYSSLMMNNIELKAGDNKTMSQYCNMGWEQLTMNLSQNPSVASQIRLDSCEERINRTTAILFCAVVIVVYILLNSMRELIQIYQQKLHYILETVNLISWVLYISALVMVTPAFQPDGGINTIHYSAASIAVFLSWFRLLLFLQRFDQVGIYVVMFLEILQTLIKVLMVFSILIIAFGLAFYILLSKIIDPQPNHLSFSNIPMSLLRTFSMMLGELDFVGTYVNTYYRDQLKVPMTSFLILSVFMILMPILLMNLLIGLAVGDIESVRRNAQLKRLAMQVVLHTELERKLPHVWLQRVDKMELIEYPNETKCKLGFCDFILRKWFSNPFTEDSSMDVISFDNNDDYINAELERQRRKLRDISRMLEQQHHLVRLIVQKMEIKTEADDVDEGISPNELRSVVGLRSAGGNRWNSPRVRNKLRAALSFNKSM
# Painless = target: T2, Painless (Drosophila melanogaster, UniProt Q9W0Y6); assay: Larval neuromuscular junction electrophysiology, Painless expressed in motor neurons; assay type: cell-based; conditions: 500 μM, third instar larval muscles
# T2 sequence (Q9W0Y6 1-913): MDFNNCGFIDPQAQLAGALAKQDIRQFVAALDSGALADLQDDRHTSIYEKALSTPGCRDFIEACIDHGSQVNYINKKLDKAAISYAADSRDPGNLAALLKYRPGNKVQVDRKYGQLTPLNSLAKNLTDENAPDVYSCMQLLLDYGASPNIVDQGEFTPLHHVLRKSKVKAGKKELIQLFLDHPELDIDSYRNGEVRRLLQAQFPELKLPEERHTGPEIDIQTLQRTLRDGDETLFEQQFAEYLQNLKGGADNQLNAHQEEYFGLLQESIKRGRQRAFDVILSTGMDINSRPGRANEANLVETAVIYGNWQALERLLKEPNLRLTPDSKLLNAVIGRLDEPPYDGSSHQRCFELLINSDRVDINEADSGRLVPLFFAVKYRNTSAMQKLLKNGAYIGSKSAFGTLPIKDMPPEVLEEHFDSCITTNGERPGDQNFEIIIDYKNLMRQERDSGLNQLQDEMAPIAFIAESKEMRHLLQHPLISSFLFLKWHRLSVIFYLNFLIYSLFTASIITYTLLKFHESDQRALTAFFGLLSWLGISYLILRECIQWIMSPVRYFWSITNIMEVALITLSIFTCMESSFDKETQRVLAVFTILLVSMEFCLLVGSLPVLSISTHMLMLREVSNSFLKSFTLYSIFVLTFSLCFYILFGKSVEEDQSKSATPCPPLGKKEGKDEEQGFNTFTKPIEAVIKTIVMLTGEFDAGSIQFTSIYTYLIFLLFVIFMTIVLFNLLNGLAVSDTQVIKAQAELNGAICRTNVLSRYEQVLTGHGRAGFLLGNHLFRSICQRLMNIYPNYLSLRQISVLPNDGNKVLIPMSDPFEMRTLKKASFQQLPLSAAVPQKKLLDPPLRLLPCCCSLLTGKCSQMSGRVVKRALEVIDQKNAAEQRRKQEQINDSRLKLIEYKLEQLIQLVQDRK
smiles,measurement,setting,value
"O=CC=Cc1ccccc1 [CA, cinnamaldehyde]",Effect on PER in dTrpA1 loss-of-function mutants,"Drosophila flies; dTrpA1 loss-of-function mutants, ingestion permitted",no reduction
same,Acceptance on first offering,Drosophila flies; first of five tastant offerings,usually accepted
same,Effect on proboscis extension response (PER) / feeding,"Drosophila flies; wild type flies, ingestion permitted, 350 mM sucrose with 2 mM AITC, 10 mM NMM or 6 mM CA",robustly inhibited
same,Response of uninjected oocytes,uninjected oocytes,did not respond
same,Excitatory junction potentials (EJPs) driven by dTRPA1-expressing motor neurons,dTRPA1,cinnamaldehyde-responsive
same,Induction of EJPs in OK371>Painless animals,Painless,does not induce
